Assay results taken from patent publication US10856562B2, “Flavor composition and edible compositions containing same” (MARS, INCORPORATED, priority 2013, dated 2020).
Entries after “also recorded” stand apart in the source; their conditions may differ. Square brackets hold non-standard residues; d marks the D form. Ends that are not written are not given here. pGlu = O=C1CC[C@@H](C(=O)O)N1

Legend:
[1] = system: panelists; assay: Increased salt perception protocol: salt 5 reference (0.35% salt solution) re-tasted after expectoration of test sample; format: in vivo, human; conditions: for Astringent, after-expectoration perception / Bitter, after-expectoration perception / Flinty/Mineral, after-expectoration perception / Metallic, after-expectoration perception / Numbing, after-expectoration perception / Salt, after-expectoration perception (mean salt perception after expectoration) / Sour, after-expectoration perception / Sweet, after-expectoration perception: salt 5 reference re-tasted, mean score; for Salt perception after expectoration as the concentration increases: 0.1 to 40.0/50.0 ppb in 0.2% NaCl; for Salt perception from in-mouth to after expectoration: all samples
Text: 1. Each panelist tasted a salt reference (0.35% salt solution) with a reference salt intensity of 5.0 which provided a baseline for each panelist for salt intensity. 2. Each panelist tasted a test sample (0.1 ppb, 0.5 ppb, 1.0 ppb, 10.0 ppb or 40.0 ppb all in 0.2% NaCl solution). Only one sample was tasted per session. 3. Each panelist re-tasted the salt reference (5.0 intensity) and rated it for salt intensity as well as any other basic taste, chemical feeling factor, or aromatic perceived. Thus, any increased salt perception as a result of the test sample would be determined, as well as any other perceptions present. Attribute Perception Protocol • The panelists evaluated each sample using the following procedure • Descriptive Profiles (flavor and chemical feeling factors) of 5 levels of salt enhancing solutions • Individual data was collected for the flavor and chemical feeling factors of the product in-mouth • Increased Salt Perception Protocol • Each panelist tasted salt 5 reference (0.35% salt solution)—to ground themselves on salt intensity of 5.0. • Each panelist tasted the test sample (0.1 ppb, 0.5 ppb, 1.0 ppb, 10.0 ppb or 40.0/50.0 ppb all in 0.2% NaCl solution: only one per session) • Each panelist then re-tasted the salt 5 reference and rated it for salt intensity as well as any other basic taste, chemical feeling factor, or aromatic perceived. This captured any increased salt perception indicated by the test sample as well as any other perceptions present. • Return to Baseline Protocol • After evaluating the sample for salt & other perceptions, panelists re-tasted the salt 5 reference at 1 minute intervals until their perception of the salt 5 saltiness intensity had returned to 5.0. Each panelist recorded their salt intensity at each interval and took qualitative notes on other perceptions seen in aftertaste. Sample Preparation

[2] = Salty taste of peanut butter with added peptide; format: in vivo; conditions: no salt reduction, 267 ppb peptide
Experimental: All Ingredients were added into the mixing bowl and milled on the Retsch mill (model RM200) for a total of 30 minutes for two 15 minute intervals. After 15 minutes, the walls of the bowl were scraped with a spatula and then, milling was resumed.
Three batches of peanut butter were made: a control with 100% NaCl (0.05 g), a sample with 100% NaCl (0.05 g) and 267 ppb pGlu-Val-Leu, and a sample with 50% NaCl reduction (0.025 g) and with 267 ppb pGlu-Val-Leu.
A 1000 ppm stock of pGlu-Val-Leu in salt was made to be added to the peanut butter.

[3] = Salty taste of NaCl-reduced potato chips with added peptide; format: in vivo; conditions: 50% salt reduction, 1150 ppb peptide
Experimental: All Ingredients were added into a plastic container and mixed gently.
Two batches of potato chips were made: a control with 100% NaCl (0.5 g) and a sample with 50% NaCl (0.25 g) and 1150 ppb pGlu-Val-Leu.
A 1000 ppm stock of pGlu-Val-Leu in salt was made to be added to the potato chips.

[4] = system: panel of trained tasters; assay: Saltiness of 25% sodium-reduced food products with peptides, panel of trained tasters; format: in vivo, human
Experimental: Food product compositions were prepared by admixing flavor composition peptide(s) of the present application with food compositions, wherein the level of sodium (NaCl) in the food product compositions was reduced. The level of sodium was reduced by 25%, 50% or 75% compared to food products compositions that were not admixed with flavor composition peptides. The food product compositions comprising the flavor composition peptides were tasted by a panel of trained tasters and the level of saltiness was compared to the control food products.
The peptides pGlu-Val-Leu (identified as “SE-13”), pGlu-Val-Cys (identified as “UE-30”), pGlu-Val-Val (identified as “SE-17”) and pGlu-Cys-Cys (identified as “FE-37”) were tested in cottage cheese, tortilla chips, ketchup, cream of mushroom soup, alfredo sauce, sausage, mixed nuts, peanuts, soy sauce and chicken broth. The level of sodium in the test food products comprising the peptides was reduced by 25% compared to the control food products.

Substance: [pGlu]-Val-Leu [SE-13]
- Astringent, after-expectoration perception ([1]; 0.1 ppb in 0.2% NaCl): 0.0
- Bitter, after-expectoration perception ([1]; 0.1 ppb in 0.2% NaCl): 0.1
- Flinty/Mineral, after-expectoration perception ([1]; 0.1 ppb in 0.2% NaCl): 0.1
- Metallic, after-expectoration perception ([1]; 0.1 ppb in 0.2% NaCl): 0.3
- Numbing, after-expectoration perception ([1]; 0.1 ppb in 0.2% NaCl): 0.0
- Salt, after-expectoration perception (mean salt perception after expectoration) ([1]; 0.1 ppb in 0.2% NaCl): 6.8
- Sour, after-expectoration perception ([1]; 0.1 ppb in 0.2% NaCl): 0.0
- Sweet, after-expectoration perception ([1]; 0.1 ppb in 0.2% NaCl): 0.0
- Level of the aromatics, basic tastes and chemical feeling factors after expectoration with increasing concentration ([1]; 0.1 to 40.0/50.0 ppb): do not increase
- Salt perception after expectoration as the concentration increases [1]: increases slightly; also recorded: slight increase
- Salt perception after expectoration as the concentration increases ([1]; listed as pGlu-Val-Leu): increased slightly
- Astringent, after-expectoration perception ([1]; 0.5 ppb in 0.2% NaCl): 0.0
- Bitter, after-expectoration perception ([1]; 0.5 ppb in 0.2% NaCl): 0.0
- Flinty/Mineral, after-expectoration perception ([1]; 0.5 ppb in 0.2% NaCl): 0.1
- Metallic, after-expectoration perception ([1]; 0.5 ppb in 0.2% NaCl): 0.3
- Numbing, after-expectoration perception ([1]; 0.5 ppb in 0.2% NaCl): 0.1
- Salt, after-expectoration perception (mean salt perception after expectoration) ([1]; 0.5 ppb in 0.2% NaCl): 6.4
- Sour, after-expectoration perception ([1]; 0.5 ppb in 0.2% NaCl): 0.0
- Sweet, after-expectoration perception ([1]; 0.5 ppb in 0.2% NaCl): 0.0
- Astringent, after-expectoration perception ([1]; 1.0 ppb in 0.2% NaCl): 0.0
- Bitter, after-expectoration perception ([1]; 1.0 ppb in 0.2% NaCl): 0.0
- Flinty/Mineral, after-expectoration perception ([1]; 1.0 ppb in 0.2% NaCl): 0.2
- Metallic, after-expectoration perception ([1]; 1.0 ppb in 0.2% NaCl): 0.1
- Numbing, after-expectoration perception ([1]; 1.0 ppb in 0.2% NaCl): 0.0
- Salt, after-expectoration perception (mean salt perception after expectoration) ([1]; 1.0 ppb in 0.2% NaCl): 7.5
- Sour, after-expectoration perception ([1]; 1.0 ppb in 0.2% NaCl): 0.0
- Sweet, after-expectoration perception ([1]; 1.0 ppb in 0.2% NaCl): 0.0
- Astringent, after-expectoration perception ([1]; 10.0 ppb in 0.2% NaCl): 0.0
- Bitter, after-expectoration perception ([1]; 10.0 ppb in 0.2% NaCl): 0.0
- Flinty/Mineral, after-expectoration perception ([1]; 10.0 ppb in 0.2% NaCl): 0.1
- Metallic, after-expectoration perception ([1]; 10.0 ppb in 0.2% NaCl): 0.3
- Numbing, after-expectoration perception ([1]; 10.0 ppb in 0.2% NaCl): 0.0
- Salt, after-expectoration perception (mean salt perception after expectoration) ([1]; 10.0 ppb in 0.2% NaCl): 8.2
- Sour, after-expectoration perception ([1]; 10.0 ppb in 0.2% NaCl): 0.0
- Sweet, after-expectoration perception ([1]; 10.0 ppb in 0.2% NaCl): 0.0
- Astringent, after-expectoration perception ([1]; 40.0 ppb in 0.2% NaCl): 0.0
- Bitter, after-expectoration perception ([1]; 40.0 ppb in 0.2% NaCl): 0.0
- Flinty/Mineral, after-expectoration perception ([1]; 40.0 ppb in 0.2% NaCl): 0.3
- Metallic, after-expectoration perception ([1]; 40.0 ppb in 0.2% NaCl): 0.2
- Numbing, after-expectoration perception ([1]; 40.0 ppb in 0.2% NaCl): 0.0
- Salt, after-expectoration perception (mean salt perception after expectoration) ([1]; 40.0 ppb in 0.2% NaCl): 8.3
- Sour, after-expectoration perception ([1]; 40.0 ppb in 0.2% NaCl): 0.0
- Sweet, after-expectoration perception ([1]; 40.0 ppb in 0.2% NaCl): 0.0
- Umami like swelling of lips and tongue, after expectoration ([1]; all levels): Panelists also experience Umami like swelling of lips and tongue
- Salt perception from in-mouth to after expectoration ([1]; 0.1 to 40.0/50.0 ppb): increases after expectoration in all samples; also recorded: noticeable increase
- Salt perception from in-mouth to after expectoration ([1]; 0.1 to 40.0/50.0 ppb, listed as pGlu-Val-Leu): increased after expectoration in all samples
- Salty taste compared to control with 100% NaCl [2]: saltier than the control
- Salty taste compared to control with 100% NaCl [3]: saltier than the control
- Saltiness compared to control ([4]; Chicken Broth, control 860 mg, test 645 mg Na, 10 ppb each, n=4): Test samples saltier than
- Saltiness/flavor compared to control ([4]; Cottage Cheese, control 350 mg, test 262 mg Na, 10 ppb each, n=4): Test samples notably less
- Saltiness compared to SE-17 ([4]; Ketchup, test 120 mg Na): SE-13 more salty than
- Saltiness compared to control ([4]; Tortilla Chips, control 103 mg, test 77 mg Na, 10 ppb each, n=4): Test samples saltier than
